Measurements reported in ChEMBL document CHEMBL3046822, “Synthesis, antiplatelet aggregation activity, and molecular modeling study of novel substituted-piperazine analogues” (2011).
Active and inactive are the calls of the source. The rule behind the calls is not given here.

Assays:
[1] = Antiaggregating activity in Homo sapiens (human) platelet rich plasma assessed as adrenaline-induced platelet aggregation at 2.5 uM incubated for 4 min prior to adrenaline-induction measured for 5.5 min by turbidometric analysis (reference value: 65 to 100%); format: functional
[2] = Antiaggregating activity in Homo sapiens (human) platelet rich plasma assessed as arachidonic acid-induced platelet aggregation at 1 uM incubated for 4 min prior to arachidonic acid-induction measured for 5.5 min by turbidometric analysis (reference value: 55 to 100%); format: functional
[3] = Antiaggregating activity in Homo sapiens (human) platelet rich plasma assessed as adrenaline-induced platelet aggregation at 1 uM incubated for 4 min prior to adrenaline-induction measured for 5.5 min by turbidometric analysis (reference value: 65 to 100%); format: functional
[4] = Antiaggregating activity in Homo sapiens (human) platelet rich plasma assessed as ADP-induced platelet aggregation at 1 uM incubated for 4 min prior to ADP-induction measured for 5.5 min by turbidometric analysis (reference value: 54 to 88%); format: functional
[5] = Antiaggregating activity in Homo sapiens (human) platelet rich plasma assessed as ristocetin-induced platelet aggregation at 1 uM incubated for 4 min prior to ristocetin-induction measured for 5.5 min by turbidometric analysis (reference value: 65 to 99%); format: functional
[6] = Antiaggregating activity in Homo sapiens (human) platelet rich plasma assessed as collagen-induced platelet aggregation at 1 uM incubated for 4 min prior to collagen-induction measured for 5.5 min by turbidometric analysis (reference value: 50 to 98%); format: functional
[7] = Antiaggregating activity in Homo sapiens (human) platelet rich plasma assessed as arachidonic acid-induced platelet aggregation at 0.6 uM incubated for 4 min prior to arachidonic acid-induction measured for 5.5 min by turbidometric analysis (reference value: 55 to 100%); format: functional
[8] = system: Platelet; assay: Antiaggregating activity in Homo sapiens (human) platelet rich plasma assessed as inhibition of ristocetin-induced platelet aggregation at 2.5 uM incubated for 4 min prior to ristocetin-induction measured for 5.5 min by turbidometric analysis; format: functional, cell-free
[9] = Antiaggregating activity in Homo sapiens (human) platelet rich plasma assessed as ADP-induced platelet aggregation at 2.5 uM incubated for 4 min prior to ADP-induction measured for 5.5 min by turbidometric analysis (reference value: 54 to 88%); format: functional
[10] = Antiaggregating activity in Homo sapiens (human) platelet rich plasma assessed as collagen-induced platelet aggregation at 2.5 uM incubated for 4 min prior to collagen-induction measured for 5.5 min by turbidometric analysis (reference value: 50 to 98%); format: functional
[11] = system: Platelet; assay: Antiaggregating activity in Homo sapiens (human) platelet rich plasma assessed as inhibition of adrenaline-induced platelet aggregation at 0.5 uM incubated for 4 min prior to adrenaline-induction measured for 5.5 min by turbidometric analysis; format: functional, cell-free
[12] = system: Platelet; assay: Antiaggregating activity in Homo sapiens (human) platelet rich plasma assessed as inhibition of arachidonic acid-induced platelet aggregation at 0.5 uM incubated for 4 min prior to arachidonic acid-induction measured for 5.5 min by turbidometric analysis; format: functional
[13] = system: Platelet; assay: Antiaggregating activity in Homo sapiens (human) platelet rich plasma assessed as inhibition of arachidonic acid-induced platelet aggregation at 0.4 uM incubated for 4 min prior to arachidonic acid-induction measured for 5.5 min by turbidometric analysis; format: functional, cell-free
[14] = system: Platelet; assay: Antiaggregating activity in Homo sapiens (human) platelet rich plasma assessed as inhibition of ADP-induced platelet aggregation at 0.5 uM incubated for 4 min prior to ADP-induction measured for 5.5 min by turbidometric analysis; format: functional, cell-free
[15] = system: Platelet; assay: Antiaggregating activity in Homo sapiens (human) platelet rich plasma assessed as inhibition of adrenaline-induced platelet aggregation at 0.4 uM incubated for 4 min prior to adrenaline-induction measured for 5.5 min by turbidometric analysis; format: functional, cell-free
[16] = system: Platelet; assay: Antiaggregating activity in Homo sapiens (human) platelet rich plasma assessed as inhibition of arachidonic acid-induced platelet aggregation at 1 uM incubated for 4 min prior to arachidonic acid-induction measured for 5.5 min by turbidometric analysis; format: functional, cell-free
[17] = system: Platelet; assay: Antiaggregating activity in Homo sapiens (human) platelet rich plasma assessed as inhibition of collagen-induced platelet aggregation at 1 uM incubated for 4 min prior to collagen-induction measured for 5.5 min by turbidometric analysis; format: functional, cell-free
[18] = system: Platelet; assay: Antiaggregating activity in Homo sapiens (human) platelet rich plasma assessed as inhibition of collagen-induced platelet aggregation at 0.4 uM incubated for 4 min prior to collagen-induction measured for 5.5 min by turbidometric analysis; format: functional, cell-free
[19] = Antiaggregating activity in human platelet rich plasma assessed as disaggregation of ristocetin-induced platelet aggregation at 1 uM incubated for 4 min prior to ristocetin-induction measured for 5.5 min by turbidometric analysis relative to control; format: functional
[20] = Antiaggregating activity in Homo sapiens (human) platelet rich plasma assessed as ristocetin-induced platelet aggregation at 0.5 uM incubated for 4 min prior to ristocetin-induction measured for 5.5 min by turbidometric analysis (reference value: 65 to 99%); format: functional
[21] = system: Platelet; assay: Antiaggregating activity in Homo sapiens (human) platelet rich plasma assessed as inhibition of ADP-induced platelet aggregation at 1 uM incubated for 4 min prior to ADP-induction measured for 5.5 min by turbidometric analysis; format: functional, cell-free
[22] = system: Platelet; assay: Antiaggregating activity in Homo sapiens (human) platelet rich plasma assessed as inhibition of adrenaline-induced platelet aggregation at 1 uM incubated for 4 min prior to adrenaline-induction measured for 5.5 min by turbidometric analysis; format: functional, cell-free
[23] = system: Platelet; assay: Antiaggregating activity in Homo sapiens (human) platelet rich plasma assessed as inhibition of collagen-induced platelet aggregation at 0.5 uM incubated for 4 min prior to collagen-induction measured for 5.5 min by turbidometric analysis; format: functional, cell-free
[24] = system: Platelet; assay: Antiaggregating activity in Homo sapiens (human) platelet rich plasma assessed as inhibition of ADP-induced platelet aggregation at 0.4 uM incubated for 4 min prior to ADP-induction measured for 5.5 min by turbidometric analysis; format: functional, cell-free
[25] = Antiaggregating activity in Homo sapiens (human) platelet rich plasma assessed as ristocetin-induced platelet aggregation at 0.4 uM incubated for 4 min prior to ristocetin-induction measured for 5.5 min by turbidometric analysis (reference value: 65 to 99%); format: functional
[26] = system: Platelet; assay: Antiaggregating activity in Homo sapiens (human) platelet rich plasma assessed as inhibition of ADP-induced platelet aggregation at 10 uM incubated for 4 min prior to ADP-induction measured for 5.5 min by turbidometric analysis; format: functional, cell-free
[27] = Antiaggregating activity in Homo sapiens (human) platelet rich plasma assessed as disaggregation of ADP-induced platelet aggregation at 5 uM incubated for 4 min prior to ADP-induction measured for 5.5 min by turbidometric analysis relative to control; format: functional
[28] = Antiaggregating activity in Homo sapiens (human) platelet rich plasma assessed as disaggregation of ADP-induced platelet aggregation at 4 uM incubated for 4 min prior to ADP-induction measured for 5.5 min by turbidometric analysis relative to control; format: functional
[29] = system: Platelet; assay: Antiaggregating activity in Homo sapiens (human) platelet rich plasma assessed as inhibition of adrenaline-induced platelet aggregation at 4 uM incubated for 4 min prior to adrenaline-induction measured for 5.5 min by turbidometric analysis; format: functional, cell-free
[30] = system: Platelet; assay: Antiaggregating activity in Homo sapiens (human) platelet rich plasma assessed as inhibition of collagen-induced platelet aggregation at 10 uM incubated for 4 min prior to collagen-induction measured for 5.5 min by turbidometric analysis; format: functional, cell-free
[31] = Antiaggregating activity in Homo sapiens (human) platelet rich plasma assessed as ristocetin-induced platelet aggregation at 5 uM incubated for 4 min prior to ristocetin-induction measured for 5.5 min by turbidometric analysis (reference value: 65 to 99%); format: functional
[32] = Antiaggregating activity in Homo sapiens (human) platelet rich plasma assessed as ristocetin-induced platelet aggregation at 10 uM incubated for 4 min prior to ristocetin-induction measured for 5.5 min by turbidometric analysis (reference value: 65 to 99%); format: functional
[33] = system: Platelet; assay: Antiaggregating activity in Homo sapiens (human) platelet rich plasma assessed as inhibition of collagen-induced platelet aggregation at 4 uM incubated for 4 min prior to collagen-induction measured for 5.5 min by turbidometric analysis; format: functional, cell-free
[34] = Antiaggregating activity in Homo sapiens (human) platelet rich plasma assessed as ristocetin-induced platelet aggregation at 4 uM incubated for 4 min prior to ristocetin-induction measured for 5.5 min by turbidometric analysis (reference value: 65 to 99%); format: functional
[35] = system: Platelet; assay: Antiaggregating activity in Homo sapiens (human) platelet rich plasma assessed as inhibition of arachidonic acid-induced platelet aggregation at 4 uM incubated for 4 min prior to arachidonic acid-induction measured for 5.5 min by turbidometric analysis; format: functional, cell-free
[36] = system: Platelet; assay: Antiaggregating activity in Homo sapiens (human) platelet rich plasma assessed as inhibition of arachidonic acid-induced platelet aggregation at 10 uM incubated for 4 min prior to arachidonic acid-induction measured for 5.5 min by turbidometric analysis; format: functional, cell-free
[37] = system: Platelet; assay: Antiaggregating activity in Homo sapiens (human) platelet rich plasma assessed as inhibition of collagen-induced platelet aggregation at 5 uM incubated for 4 min prior to collagen-induction measured for 5.5 min by turbidometric analysis; format: functional, cell-free
[38] = system: Platelet; assay: Antiaggregating activity in Homo sapiens (human) platelet rich plasma assessed as inhibition of adrenaline-induced platelet aggregation at 10 uM incubated for 4 min prior to adrenaline-induction measured for 5.5 min by turbidometric analysis; format: functional, cell-free
[39] = system: Platelet; assay: Antiaggregating activity in Homo sapiens (human) platelet rich plasma assessed as inhibition of arachidonic acid-induced platelet aggregation at 5 uM incubated for 4 min prior to arachidonic acid-induction measured for 5.5 min by turbidometric analysis; format: functional, cell-free
[40] = system: Platelet; assay: Antiaggregating activity in Homo sapiens (human) platelet rich plasma assessed as inhibition of adrenaline-induced platelet aggregation at 5 uM incubated for 4 min prior to adrenaline-induction measured for 5.5 min by turbidometric analysis; format: functional, cell-free
[41] = system: Platelet; assay: Antiaggregating activity in Homo sapiens (human) platelet rich plasma assessed as inhibition of arachidonic acid-induced platelet aggregation at 3 uM incubated for 4 min prior to arachidonic acid-induction measured for 5.5 min by turbidometric analysis; format: functional, cell-free
[42] = system: Platelet; assay: Antiaggregating activity in Homo sapiens (human) platelet rich plasma assessed as inhibition of adrenaline-induced platelet aggregation at 0.6 uM incubated for 4 min prior to adrenaline-induction measured for 5.5 min by turbidometric analysis; format: functional, cell-free
[43] = Antiaggregating activity in Homo sapiens (human) platelet rich plasma assessed as disaggregation of arachidonic acid-induced platelet aggregation at 0.06 uM incubated for 4 min prior to arachidonic acid-induction measured for 5.5 min by turbidometric analysis relative to control; format: functional
[44] = system: Platelet; assay: Antiaggregating activity in Homo sapiens (human) platelet rich plasma assessed as inhibition of ristocetin-induced platelet aggregation at 3 uM incubated for 4 min prior to ristocetin-induction measured for 5.5 min by turbidometric analysis; format: functional, cell-free
[45] = system: Platelet; assay: Antiaggregating activity in Homo sapiens (human) platelet rich plasma assessed as inhibition of adrenaline-induced platelet aggregation at 3 uM incubated for 4 min prior to adrenaline-induction measured for 5.5 min by turbidometric analysis; format: functional, cell-free
[46] = Antiaggregating activity in Homo sapiens (human) platelet rich plasma assessed as ristocetin-induced platelet aggregation at 0.6 uM incubated for 4 min prior to ristocetin-induction measured for 5.5 min by turbidometric analysis (reference value: 65 to 99%); format: functional
[47] = system: Platelet; assay: Antiaggregating activity in Homo sapiens (human) platelet rich plasma assessed as inhibition of collagen-induced platelet aggregation at 3 uM incubated for 4 min prior to collagen-induction measured for 5.5 min by turbidometric analysis; format: functional, cell-free
[48] = Antiaggregating activity in Homo sapiens (human) platelet rich plasma assessed as ADP-induced platelet aggregation at 0.6 uM incubated for 4 min prior to ADP-induction measured for 5.5 min by turbidometric analysis (reference value: 54 to 88%); format: functional
[49] = system: Platelet; assay: Antiaggregating activity in Homo sapiens (human) platelet rich plasma assessed as inhibition of ADP-induced platelet aggregation at 3 uM incubated for 4 min prior to ADP-induction measured for 5.5 min by turbidometric analysis; format: functional, cell-free
[50] = Antiaggregating activity in Homo sapiens (human) platelet rich plasma assessed as collagen-induced platelet aggregation at 0.6 uM incubated for 4 min prior to collagen-induction measured for 5.5 min by turbidometric analysis (reference value: 50 to 98%); format: functional

Structure (SMILES): O=C(c1ccc[n+](Cc2ccccc2)c1)N1CCN(c2ccccc2Cl)CC1.[Cl-]
- Activity [1]: 12%
- Activity [2]: 67%
- Activity [3]: 75%
- Activity [4]: 83%
- Activity [5]: 89%
- Activity [6]: 80%
- Activity [7]: 53%
- inhibition [8]: Active
- Activity [9]: 83%
- Activity [10]: 82%

Structure (SMILES): Cl.O=C(c1cccnc1)N1CCN(c2ccccc2Cl)CC1
- inhibition [11]: Active
- inhibition [12]: Active
- inhibition [13]: Active
- inhibition [14]: Active
- inhibition [15]: Active
- inhibition [16]: Active
- inhibition [17]: Active
- inhibition [18]: Active
- Activity [19]: 23%
- Activity [20]: 71%
- inhibition [21]: Active
- inhibition [22]: Active
- inhibition [23]: Active
- inhibition [24]: Active
- Activity [25]: 77%

Structure (SMILES): O=C(c1ccc[n+](Cc2ccc(F)cc2)c1)N1CCN(c2ccccc2Cl)CC1.[Cl-]
- inhibition [26]: Active
- Activity [27]: 40%
- Activity [28]: 60%
- inhibition [29]: Active
- inhibition [30]: Active
- Activity [31]: 87%
- Activity [32]: 24%
- inhibition [33]: Active
- Activity [34]: 88%
- inhibition [35]: Active
- inhibition [36]: Active
- inhibition [37]: Active
- inhibition [38]: Active
- inhibition [39]: Active
- inhibition [40]: Active

Structure (SMILES): Cl.O=C(c1cccnc1)N1CCN(c2ncccn2)CC1
- Activity [4]: 13%
- inhibition [41]: Active
- inhibition [42]: Active
- inhibition [16]: Active
- Activity [43]: 20%
- inhibition [44]: Active
- inhibition [45]: Active
- Activity [5]: 74%
- Activity [46]: 76%
- inhibition [47]: Active
- Activity [48]: 40%
- Activity [6]: 72%
- inhibition [22]: Active
- inhibition [49]: Active
- Activity [50]: 58%
